The text below walks through data of publication PMC9921273, “Omega-3 PUFAs as a Dietary Supplement in Senile Systemic Amyloidosis” (Nutrients, 2023).

Molecules are shown by their SMILES.

In test [1] the target is T1, transthyretin (wt-TTR) (Homo sapiens, UniProt P02766). Put plainly: ANS fluorescence displacement binding assay (also turbidimetric and ThT fibril formation assays). On the set-up: wt-TTR tetramer, human plasma.
Test [2] concerns the target T1, transthyretin (wt-TTR). Put plainly: ANS fluorescence displacement binding assay (also turbidimetric fibril formation assay). On the set-up: wt-TTR tetramer, human plasma.

For `CC/C=C\C/C=C\C/C=C\C/C=C\C/C=C\C/C=C\CCC(=O)O` [DHA, docosahexaenoic acid], in test [1], the IC50 stood at 12.1 ± 0.07 µM.

`CC/C=C\C/C=C\C/C=C\C/C=C\C/C=C\CCCC(=O)O` [EPA, eicosapentaenoic acid]: the IC50 in test [2] was determined as 13 ± 0.08 µM.
